Experimental data from patent US11702422B2, “Imidazopyridazines as modulators of IL-17” (Janssen Pharmaceutica NV, priority 2020, dated 2023).

How the values were obtained:
[1] = biological target: IL-17A(FLAG-Tagged): IL-17RA(His-Tagged) (Homo sapiens, UniProt Q16552, K93Q); assay: IL-17A(FLAG-Tagged): IL-17RA(His-Tagged) Binding Disruption Eu-HTRF Assay; details: IL-17A/IL-17RA binding disruption, simple average if tested more than once
Summary of the method: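 IC50 comes from a one-site competition fit of the HTRF 665/620 nm ratio. Compound dilutions (2-fold, 22 points) were held 1 h rt with FLAG-tagged IL-17A dimer, then His-tagged IL-17RA plus Eu-cryptate anti-FLAG and D2 anti-His antibodies were added for 2 h rt.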

[2] = system: IL-17A-induced G-CSF production in human normal keratinocyte (NHK); assay: NHK Assay: IL-17A-induced G-CSF production in human normal keratinocytes; assay type: cell-based; details: 24 h, adult normal human keratinocytes, IL-17A 5 ng/mL, simple average if tested more than once
Summary of the method: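 Adult NHK, 3000-4000 cells/well; rhIL-17A + titrated cpd preincubated 1 h rt, then onto cells. Final: IL-17A 5 ng/mL, DMSO 0.2%, 5% FBS. 24 h, 37° C. G-CSF in supernatant by HTRF vs standard curve; IC50. Viability by CellTiter-Glo vs DMSO.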

Sequence of UniProt Q16552 (Q16552 with tags, fused parts or gaps K93Q): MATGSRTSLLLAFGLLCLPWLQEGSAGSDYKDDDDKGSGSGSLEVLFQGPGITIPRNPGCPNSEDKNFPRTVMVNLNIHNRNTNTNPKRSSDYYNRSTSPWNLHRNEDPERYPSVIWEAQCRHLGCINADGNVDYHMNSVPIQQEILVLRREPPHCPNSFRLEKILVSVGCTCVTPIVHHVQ

| IC50 [1] | SMILES | IC50 ([2]; Homo sapiens, Keratinocyte) | IC50 [2] |
| --- | --- | --- | --- |
| 0.033 µM | CCc1nocc1C(=O)N[C@H](c1cn2ncc([C@H](NC(=O)CCC(F)(F)F)C3CC3)cc2n1)C1CCC(F)(F)CC1 [Example 83, N—((S)-(7-((R)-Cyclopropyl(4,4,4-trifluorobutanamido)methyl)imidazo[1,2-b]pyridazin-2-yl)(4,4-difluorocyclohexyl)methyl)-3-ethylisoxazole-4-carboxamide] | 0.06 µM | – |
| 3.8 µM | CC(C)n1nccc1C(=O)N[C@H](c1cn2ncc(C(NC(=O)C(F)(F)CC3CC3)C3(C#N)CC3)cc2n1)C1CCC(F)(F)CC1 (single isomer, unassigned) [Example 437, N—((S)-(7-((R*)-(1-Cyanocyclopropyl)(3-cyclopropyl-2,2-difluoropropanamido)methyl)imidazo[1,2-b]pyridazin-2-yl)(4,4-difluorocyclohexyl)methyl)-1-isopropyl-1H-pyrazole-5-carboxamide] | > 20 µM | – |
| 3.8 µM | CC(C)n1nccc1C(=O)N[C@H](c1cn2ncc(C(NC(=O)CC3CC(F)(F)C3)C3(C#N)CC3)cc2n1)C1CCC(F)(F)CC1 (single isomer, unassigned) [Example 431, N—((S)-(7-((R*)-(1-Cyanocyclopropyl)(2-(3,3-difluorocyclobutyl)acetamido)methyl)imidazo[1,2-b]pyridazin-2-yl)(4,4-difluorocyclohexyl)methyl)-1-isopropyl-1H-pyrazole-5-carboxamide] | – | > 20 µM |
| 0.37 µM | O=C(CCC(F)(F)F)N[C@@H](c1cnn2cc([C@@H](NC(=O)c3cn(CC4CC(F)(F)C4(F)F)nn3)C3CCC(F)(F)CC3)nc2c1)C1CC1 (stereo partly drawn) [Example 96, N—((S)-(7-((R)-Cyclopropyl(4,4,4-trifluorobutanamido)methyl)imidazo[1,2-b]pyridazin-2-yl)(4,4-difluorocyclohexyl)methyl)-1-((2,2,3,3-tetrafluorocyclobutyl)methyl)-1H-1,2,3-triazole-4-carboxamide] | 2.2 µM | – |
| 0.39 µM | CC[C@H](NC(=O)CC1CC(F)(F)C1)c1cnn2cc([C@@H](NC(=O)c3nonc3C3CC3)C3CCC(F)(F)CC3)nc2c1 (relative stereo) [Example 521, 4-Cyclopropyl-N—((S*)-(7-((R)-1-(2-(3,3-difluorocyclobutyl)acetamido)propyl)imidazo[1,2-b]pyridazin-2-yl)(4,4-difluorocyclohexyl)methyl)-1,2,5-oxadiazole-3-carboxamide] | 8 µM | – |
| 0.73 µM | CC(C)n1nccc1C(=O)N[C@H](c1cn2ncc([C@@H](NC(=O)C[C@@H]3CC3(F)F)C3CC3)cc2n1)C1CCC(F)(F)CC1 (single isomer, unassigned) [Example 139] | 0.69 µM | – |
| 0.13 µM | O=C(CC(C(F)(F)F)C(F)(F)F)NC(c1cnn2cc([C@@H](NC(=O)c3ccccc3)C3CCC(F)(F)CC3)nc2c1)C1CC1 (single isomer, unassigned) [Example 16, N—((S)-(7-((R*)-Cyclopropyl(4,4,4-trifluoro-3-(trifluoromethyl)butanamido)methyl)imidazo[1,2-b]pyridazin-2-yl)(4,4-difluorocyclohexyl)methyl)benzamide] | – | 0.13 µM |
| 0.24 µM | O=C(CCC(F)(F)F)N[C@@H](c1cnn2cc([C@@H](NC(=O)C3CC3C(F)(F)F)C3CCC(F)(F)CC3)nc2c1)C1CC1 (mixture of isomers) [Example 43, (Trans-1,2)-N—((S)-(7-((R)-cyclopropyl(4,4,4-trifluorobutanamido)methyl)imidazo[1,2-b]pyridazin-2-yl)(4,4-difluorocyclohexyl)methyl)-2-(trifluoromethyl)cyclopropane-1-carboxamide] | 0.72 µM | – |
| 0.041 µM | O=C(CCC(F)(F)F)N[C@@H](c1cnn2cc([C@@H](NC(=O)c3conc3C3CCC3)C3CCC(F)(F)CC3)nc2c1)C1CC1 [Example 474, 3-Cyclobutyl-N—((S)-(7-((R)-cyclopropyl(4,4,4-trifluorobutanamido)methyl)imidazo[1,2-b]pyridazin-2-yl)(4,4-difluorocyclohexyl)methyl)isoxazole-4-carboxamide] | 0.13 µM | – |
